Data reported in PubChem BioAssay AID1259407 (Chemical Carcinogenesis Research Information System (CCRIS), 2018).
The source made the active and inactive calls. The rule behind the calls is not given here.

System: CCRIS mutagenicity, Ames/micronucleus/aberration tests
Test: CCRIS mutagenicity studies
[1] = Test System: AMES SALMONELLA TYPHIMURIUM, Strain/Indicator: TA98, Metabolic Activation: NONE, Method: PREINCUBATION
[2] = Test System: AMES SALMONELLA TYPHIMURIUM, Strain/Indicator: TA100, Metabolic Activation: NONE, Method: PREINCUBATION
[3] = Test System: AMES SALMONELLA TYPHIMURIUM, Strain/Indicator: TA102, Metabolic Activation: NONE, Method: PREINCUBATION

Measured: mutagenic call

N.N.[Br-].[Br-].[Pt+2]
active: [1] active; positive | [2] active; positive

COC1=CC(=O)C=CC1=Nc1c2ccccc2nc2ccccc12
inactive: Test System: AMES SALMONELLA TYPHIMURIUM, Strain/Indicator: TA1537, Metabolic Activation: NONE, Method: STANDARD PLATE inactive; negative

CCOC(C)=O
inactive: End Point: IN VITRO CHROMOSOMAL ABERRATIONS, Test System: CHO-LB CELLS, Metabolic Activation: NONE inactive; negative | End Point: IN VITRO CHROMOSOMAL ABERRATIONS, Test System: CHO-LB CELLS, Metabolic Activation: RAT, LIVER, S-9, AROCLOR 1254 inactive; negative | End Point: IN VIVO MICRONUCLEUS, Test System: BONE MARROW POLYCHROMATIC ERYTHROCYTES, Species: MOUSE, Strain/Sex: DDY/MALE, Route: IP inactive; negative | Test System: AMES SALMONELLA TYPHIMURIUM, Strain/Indicator: TA97, Metabolic Activation: HAMSTER, LIVER, S-9, AROCLOR 1254 (10 OR 30%), Method: PREINCUBATION inactive; negative | Test System: AMES SALMONELLA TYPHIMURIUM, Strain/Indicator: TA97, Metabolic Activation: NONE, Method: PREINCUBATION inactive; negative | Test System: AMES SALMONELLA TYPHIMURIUM, Strain/Indicator: TA97, Metabolic Activation: RAT, LIVER, S-9, AROCLOR 1254 (10 OR 30%), Method: PREINCUBATION inactive; negative | Test System: AMES SALMONELLA TYPHIMURIUM, Strain/Indicator: TA98, Metabolic Activation: HAMSTER, LIVER, S-9, AROCLOR 1254 (10 OR 30%), Method: PREINCUBATION inactive; negative | [1] inactive; negative | Test System: AMES SALMONELLA TYPHIMURIUM, Strain/Indicator: TA98, Metabolic Activation: RAT, LIVER, S-9, AROCLOR 1254 (10 OR 30%), Method: PREINCUBATION inactive; negative | Test System: AMES SALMONELLA TYPHIMURIUM, Strain/Indicator: TA98, Metabolic Activation: RAT, LIVER, S-9, PHENOBARBITAL AND BETA-NAPHTHOFLAVONE, Method: PREINCUBATION inactive; negative | Test System: AMES SALMONELLA TYPHIMURIUM, Strain/Indicator: TA100, Metabolic Activation: HAMSTER, LIVER, S-9, AROCLOR 1254 (10 OR 30%), Method: PREINCUBATION inactive; negative | [2] inactive; negative | Test System: AMES SALMONELLA TYPHIMURIUM, Strain/Indicator: TA100, Metabolic Activation: RAT, LIVER, S-9, AROCLOR 1254 (10 OR 30%), Method: PREINCUBATION inactive; negative | Test System: AMES SALMONELLA TYPHIMURIUM, Strain/Indicator: TA100, Metabolic Activation: RAT, LIVER, S-9, PHENOBARBITAL AND BETA-NAPHTHOFLAVONE, Method: PREINCUBATION inactive; negative | [3] inactive; negative | Test System: AMES SALMONELLA TYPHIMURIUM, Strain/Indicator: TA102, Metabolic Activation: RAT, LIVER, S-9, PHENOBARBITAL AND BETA-NAPHTHOFLAVONE, Method: PREINCUBATION inactive; negative | Test System: AMES SALMONELLA TYPHIMURIUM, Strain/Indicator: TA104, Metabolic Activation: NONE, Method: PREINCUBATION inactive; negative | Test System: AMES SALMONELLA TYPHIMURIUM, Strain/Indicator: TA104, Metabolic Activation: RAT, LIVER, S-9, PHENOBARBITAL AND BETA-NAPHTHOFLAVONE, Method: PREINCUBATION inactive; negative | Test System: AMES SALMONELLA TYPHIMURIUM, Strain/Indicator: TA1535, Metabolic Activation: HAMSTER, LIVER, S-9, AROCLOR 1254 (10 OR 30%), Method: PREINCUBATION inactive; negative | Test System: AMES SALMONELLA TYPHIMURIUM, Strain/Indicator: TA1535, Metabolic Activation: NONE, Method: PREINCUBATION inactive; negative | Test System: AMES SALMONELLA TYPHIMURIUM, Strain/Indicator: TA1535, Metabolic Activation: RAT, LIVER, S-9, AROCLOR 1254 (10 OR 30%), Method: PREINCUBATION inactive; negative | Test System: AMES SALMONELLA TYPHIMURIUM, Strain/Indicator: TA1535, Metabolic Activation: RAT, LIVER, S-9, PHENOBARBITAL AND BETA-NAPHTHOFLAVONE, Method: PREINCUBATION inactive; negative | Test System: AMES SALMONELLA TYPHIMURIUM, Strain/Indicator: TA1537, Metabolic Activation: HAMSTER, LIVER, S-9, AROCLOR 1254 (30%), Method: PREINCUBATION inactive; negative | Test System: AMES SALMONELLA TYPHIMURIUM, Strain/Indicator: TA1537, Metabolic Activation: NONE, Method: PREINCUBATION inactive; negative | Test System: AMES SALMONELLA TYPHIMURIUM, Strain/Indicator: TA1537, Metabolic Activation: RAT, LIVER, S-9, AROCLOR 1254 (30%), Method: PREINCUBATION inactive; negative | Test System: AMES SALMONELLA TYPHIMURIUM, Strain/Indicator: TA1537, Metabolic Activation: RAT, LIVER, S-9, PHENOBARBITAL AND BETA-NAPHTHOFLAVONE, Method: PREINCUBATION inactive; negative | Test System: E. COLI, Strain/Indicator: WP2UVRA/PKM101, Metabolic Activation: NONE, Method: PREINCUBATION inactive; negative | Test System: E. COLI, Strain/Indicator: WP2UVRA/PKM101, Metabolic Activation: RAT, LIVER, S-9, PHENOBARBITAL AND BETA-NAPHTHOFLAVONE, Method: PREINCUBATION inactive; negative | Test System: E. COLI, Strain/Indicator: WP2UVRA, Metabolic Activation: NONE, Method: PREINCUBATION inactive; negative | Test System: E. COLI, Strain/Indicator: WP2UVRA, Metabolic Activation: RAT, LIVER, S-9, PHENOBARBITAL AND BETA-NAPHTHOFLAVONE, Method: PREINCUBATION inactive; negative

CC(C(=O)O)c1cccc(C(=O)c2ccccc2)c1 (stereo not given)
inactive: Test System: AMES SALMONELLA TYPHIMURIUM, Strain/Indicator: TA97A, Metabolic Activation: NONE, Method: STANDARD PLATE inactive; negative | Test System: AMES SALMONELLA TYPHIMURIUM, Strain/Indicator: TA97A, Metabolic Activation: RAT, LIVER, S-9, PHENOBARBITAL, Method: STANDARD PLATE inactive; negative | Test System: AMES SALMONELLA TYPHIMURIUM, Strain/Indicator: TA100, Metabolic Activation: NONE, Method: STANDARD PLATE inactive; negative | Test System: AMES SALMONELLA TYPHIMURIUM, Strain/Indicator: TA100, Metabolic Activation: RAT, LIVER, S-9, PHENOBARBITAL, Method: STANDARD PLATE inactive; negative | Test System: AMES SALMONELLA TYPHIMURIUM, Strain/Indicator: TA102, Metabolic Activation: NONE, Method: STANDARD PLATE inactive; negative | Test System: AMES SALMONELLA TYPHIMURIUM, Strain/Indicator: TA102, Metabolic Activation: RAT, LIVER, S-9, PHENOBARBITAL, Method: STANDARD PLATE inactive; negative

CC(=O)CCC(C)=O
inactive: [1] inactive; negative | Test System: AMES SALMONELLA TYPHIMURIUM, Strain/Indicator: TA98, Metabolic Activation: RAT, LIVER, S-9, AROCLOR 1254, Method: PREINCUBATION inactive; negative | [2] inactive; negative | Test System: AMES SALMONELLA TYPHIMURIUM, Strain/Indicator: TA100, Metabolic Activation: RAT, LIVER, S-9, AROCLOR 1254, Method: PREINCUBATION inactive; negative | [3] inactive; negative | Test System: AMES SALMONELLA TYPHIMURIUM, Strain/Indicator: TA102, Metabolic Activation: RAT, LIVER, S-9, AROCLOR 1254, Method: PREINCUBATION inactive; negative
